The test system of series [1] is LAD2. Kind of series: Antiallergic activity in human LAD2 cells assessed as inhibition of C48/80-induced beta-hexosaminidase release. The settings on record: dose 0.1-100 µM. The series is classed as functional, cell-based.
Series [2] concerns LAD2. Nature of the series: Cytotoxicity against human LAD2 cells at 0.1 to 100 uM measured after 24 hrs. The series is classed as toxicity, cell-based. The following applies: lad2, 24 h, dose 0.1-100 µM.
The subject of series [3] is LAD2. Nature of the series: Antiallergic activity in human LAD2 cells assessed as inhibition of C48/80-induced histamine release. The series is classed as functional, cell-based. The following applies: dose 0.1-100 µM, DDE = dose-dependent effect.
For series [4], the target named is T1, Mas-related G-protein coupled receptor member X2 (Homo sapiens) (UniProt Q96LB1).
T1 sequence (whole entry): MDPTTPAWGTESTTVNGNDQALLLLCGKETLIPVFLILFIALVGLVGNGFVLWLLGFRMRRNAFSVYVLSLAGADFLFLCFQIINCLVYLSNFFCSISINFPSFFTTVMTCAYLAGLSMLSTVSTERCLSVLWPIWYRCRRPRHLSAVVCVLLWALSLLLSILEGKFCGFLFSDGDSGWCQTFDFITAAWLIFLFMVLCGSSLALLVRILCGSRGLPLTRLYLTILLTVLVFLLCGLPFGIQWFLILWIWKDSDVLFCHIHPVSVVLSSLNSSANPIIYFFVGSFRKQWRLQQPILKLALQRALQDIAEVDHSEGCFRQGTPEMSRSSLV
Nature of the series: Antagonist activity at MRGPRX2 (unknown origin) expressed in HEK293 cells assessed as inhibition of C48/80-induced Ca2+- mobilization. The series is classed as functional, cell-based. The following applies: filed as antagonist, dose 0.1-100 µM, DDE = dose-dependent effect.

Structures are written as SMILES. Activity calls are given as the source filed them. The calls are words filed in the database; no cut-off is given here.

As for `O=C(Nc1ccc(Sc2ccc3c(=O)[nH]cnc3c2)cc1)Nc1ccc(Cl)c(C(F)(F)F)c1`, the inhibition result in the series with LAD2 [1] was “Active”.
On to `O=C(Nc1ccc(Cl)c(C(F)(F)F)c1)Nc1nc(COc2ccc(CCCCn3ccnn3)cc2)co1`, for which, in the series with LAD2 [2], the Activity result is “Non-Toxic”. Moreover, the inhibition entry (in the series with LAD2 [1] (DDE = dose-dependent effect); with LAD2 [3]; in series [4]) was “Dde” throughout.
Consider `O=C(Nc1ccc(C(F)(F)F)cc1)Nc1nc(COc2ccc(CCCCn3ccnn3)cc2)co1`, for which the Activity entry with LAD2 [2] is given as “Non-Toxic”. In addition, the inhibition result (with LAD2 [1] (DDE = dose-dependent effect); with LAD2 [3]; in series [4]) was “Dde” in each case.
As for `FC(F)(F)c1ccc(/C=C/c2nc(COc3ccc(CCCCn4ccnn4)cc3)co2)cc1`, in the series on LAD2 [1], the inhibition entry was “Active”.

The values are drawn from ChEMBL document CHEMBL5143572, “Synthesis and evaluation of new potential anti-pseudo-allergic agents” (Bioorg Med Chem Lett, 2022).
